Data from PubChem BioAssay AID342 (DTP/NCI, 2004).

Tested on: Swiss mice, Sarcoma 180 sc, mean tumor weight T/C
Assay: NCI In Vivo Anticancer Drug Screen. Data for tumor model Sarcoma 180 (subcutaneous) in Swiss mice
Details: endpoint: mean tumor weight, higher = larger tumour
How it was run: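 Antitumor activity is assessed in mice with transplantable tumors. Treated (T) and vehicle control (C) groups are compared on survival or tumor size.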

CC1C/C=C2\CSC(NC(=O)/C3=C\N(C/C=C/C=C/C(O)CC(O)CC(=O)N3)C2=O)C(=O)O1 (configuration not stated)
T/C (dose: 18.75 mg/kg/injection, schedule: Q01DX007 (ip), vehicle: carboxymethylcellulose (CMC)): 111 % of control
T/C (dose: 37.5 mg/kg/injection, schedule: Q01DX007 (ip), vehicle: carboxymethylcellulose (CMC)): 112 % of control
T/C (dose: 150.0 mg/kg/injection, schedule: Q01DX007 (ip), vehicle: carboxymethylcellulose (CMC)): 114 % of control
T/C (dose: 187.0 mg/kg/injection, schedule: Q01DX007 (ip), vehicle: carboxymethylcellulose (CMC)): 68 % of control
T/C (dose: 250.0 mg/kg/injection, schedule: Q01DX007 (ip), vehicle: carboxymethylcellulose (CMC)): 119 % of control
T/C (dose: 375.0 mg/kg/injection, schedule: Q01DX007 (ip), vehicle: carboxymethylcellulose (CMC)): 91 % of control
T/C (dose: 500.0 mg/kg/injection, schedule: Q01DX007 (ip), vehicle: carboxymethylcellulose (CMC)): 73 % of control

CC(C)COC(=O)C1(N)CCCC1
T/C (dose: 90.0 mg/kg/injection, schedule: Q01DX007 (ip), vehicle: carboxymethylcellulose (CMC)): 80 % of control
T/C (dose: 135.0 mg/kg/injection, schedule: Q01DX007 (ip), vehicle: carboxymethylcellulose (CMC)): 44 % of control
T/C (dose: 188.0 mg/kg/injection, schedule: Q01DX007 (ip), vehicle: saline): 14 % of control
T/C (dose: 202.0 mg/kg/injection, schedule: Q01DX007 (ip), vehicle: carboxymethylcellulose (CMC)): 49 % of control
T/C (dose: 303.0 mg/kg/injection, schedule: Q01DX007 (ip), vehicle: carboxymethylcellulose (CMC)): 18 % of control

O=C1c2ccccc2C(=O)c2c1c(O)c1ccccc1c2O
T/C (dose: 100.0 mg/kg/injection, schedule: Q#A X014 (im), vehicle: other): 87 % of control
T/C (dose: 100.0 mg/kg/injection, schedule: Q#A X014 (sc), vehicle: other): 70 % of control
T/C (dose: 200.0 mg/kg/injection, schedule: Q#A X014 (im), vehicle: other): 109 % of control
T/C (dose: 200.0 mg/kg/injection, schedule: Q#A X014 (sc), vehicle: other): 66 % of control
T/C (dose: 300.0 mg/kg/injection, schedule: Q#A X014 (im), vehicle: other): 114 % of control
T/C (dose: 300.0 mg/kg/injection, schedule: Q#A X014 (sc), vehicle: other): 64 % of control
T/C (dose: 400.0 mg/kg/injection, schedule: Q#A X014 (im), vehicle: other): 90 % of control
T/C (dose: 400.0 mg/kg/injection, schedule: Q#A X014 (sc), vehicle: other): 65 % of control
T/C (dose: 500.0 mg/kg/injection, schedule: Q#A X014 (oral), vehicle: other): 72 % of control
T/C (dose: 750.0 mg/kg/injection, schedule: Q#A X014 (oral), vehicle: other): 69 % of control
